# Laboratory results taken from US20240270779A1, “NOVEL PHENYLPROPANOID COMPOUND” (NABOCUL COSMETICS CO., LTD., priority 2021, published 2024).
# Legend:
# [1] = test system: B16 melanoma cells; test: Amount of melanin produced in B16 melanoma cells (melanogenesis inhibition); type: cell-based, mouse; conditions: for inhibition at 10 µM: concentration 10 μM
# Method: (§1) In this test, B16 melanoma cells were used. A B16 melanoma cell, a mouse skin melanoma-derived cell line, has melanogenic capacity. B16 melanoma cells were cultured in a DMEM medium (containing 10% FBS, 100 U/mL penicillin and […] streptomycin) in the presence of 5% CO2 at 37° C. and saturated humidity.
# (§2) Ceratonia siliqua B was diluted with a DMEM medium to obtain sample solutions with different concentrations of 1 μM, 5 μM, 10 μM, 50 μM and 100 μM.
# A single cell suspension of B16 melanoma cells was prepared, and 4×10^4 B16 melanoma cells were seeded in each well of a 12-well microplate. After culturing overnight in a CO2 incubator, the supernatant was removed, and the wells were divided into a blank control group, a positive control group and a test group. A 1 mL portion of a DMEM medium was added to each well of the blank control group, a 1 mL portion of each of solutions of L-ascorbic acid dissolved in DMEM medium at different concentrations (a concentration of L-ascorbic acid: 0.1 μM, 5 μM, 10 μM) was added to each well of the positive control group, and a 1 mL portion of each of the sample solutions from the above (b) was added to each well of the test group. After culturing for 48 hours, the supernatant was removed from each well followed by washing twice with PBS buffer, treatment with trypsin and addition of 1.2 mL of PBS buffer to prepare a single cell suspension. A 200 μL aliquot of this cell suspension was taken to determine the protein content. The remaining cell suspension was centrifuged at 3000 rpm for 5 minutes to remove the supernatant. Thereafter, 250 μL of a 1 M NaOH solution containing 1% DMSO was added thereto and dissolved for 30 minutes in a water bath heated to 80° C. A 200 μL aliquot of this solution was taken and the absorbance at 405 nm (Atest group, Apositive control group, Ablank control group) was measured. The test was performed in triplicate (3 wells) for the blank control group, for the positive control group and for each concentration of the sample solution in the test group (n=3).
# The intracellular melanogenesis inhibition rate (%) was determined for the test group and the positive control group by the following equations:
# [formula] • wherein Atest group is the absorbance of the test group, Apositive control group is the absorbance of the positive control group, and Ablank control group is the absorbance of the blank control group.
# [2] = DPPH radical scavenging activity; type: biochemical; conditions: sample solutions 1-100 μM, 30 minutes at room temperature in the dark, absorbance 517 nm, FIG. 10
# Method: Ceratonia siliqua B obtained in Example 2 was used to measure the DPPH radical scavenging activity of Ceratonia siliqua B.
# First, Ceratonia siliqua B obtained in Example 2 was accurately weighed out and dissolved in methanol to prepare a sample solution with a concentration of 100 μM. This sample solution having a concentration of 100 μM was further diluted with methanol to obtain sample solutions with different concentrations of 1 μM, 5 μM, 10 μM and 50 μM. Next, 2 mg of DPPH (2,2-diphenyl-1-picrylhydrazyl) was dissolved in 50 mL of methanol to prepare a 100 μM DPPH solution.
# A 190 μL portion of the DPPH solution was placed in each of wells of a 96-well microplate, and 10 μL of the sample solution was quickly added thereto. […] Thereafter, the absorbance at 517 nm (Asample) was measured with a microplate reader. The reaction solution to which methanol was added instead of the sample solution was used as a blank, and the absorbance of the blank (Ablank) was measured. In addition, the absorbance (Asample blank) due to coloration of the sample solution itself at each concentration was measured as a sample blank. […]
# The radical scavenging rate (%) was determined by the following equation.
# [formula] • wherein Ablank is the absorbance of the blank, Asample is the absorbance of the sample solution, and Asample blank is the absorbance of the sample blank.
# [3] = test system: B16 melanoma cells; test: MTT cytotoxicity test on B16 melanoma cells; type: cell-based, mouse; conditions: concentrations of 1 to 100 μM, 48 hours, FIG. 13
# Method: as §1, §2
# (§3) First, an MTT test was performed to confirm the presence or absence of cytotoxicity of Ceratonia siliqua B against B16 melanoma cells. B16 melanoma cells that had been subcultured for three generations or more were treated with trypsin to prepare a single cell suspension having a concentration of 3×10^4 cells/mL. A 100 μL portion of this cell suspension was seeded in each well of a 96-well microplate and cultured overnight in a CO2 incubator. The supernatant was removed from each well, and the wells were divided into a control (blank control) group and a test group. […] After 4 hours, the supernatant was removed, a 150 μL portion of DMSO was added to each well, and the absorbance at 570 nm was measured with a microplate reader. […]
# (§4) The cell viability of the test group was calculated taking the value for the control (blank control) group as 100.
# [4] = test system: HepG2 cells; test: Measurement of ROS in HepG2 cells (hydrogen peroxide induced, DCFH-DA); type: cell-based, human; conditions: 1-100 μM, 24 hours pre-culture, 400 μM hydrogen peroxide 90 minutes, FIG. 12
# Method: Ceratonia siliqua B obtained in Example 2 was used to examine the effect of Ceratonia siliqua B on the generation of reactive oxygen species (ROS) in living cells.
# (§5) In this test, a HepG2 cell, a human liver-derived tumor cell line was used as a living cell. HepG2 cells were cultured in a DMEM medium (containing 10% FBS, 100 U/mL penicillin and […] streptomycin) in the presence of 5% CO2 at 37° C. and saturated humidity.
# A HepG2 cell suspension having a concentration of 1×10^5 cells/mL was prepared, and a 100 μL portion of the cell suspension was seeded in each well of a 96-well microplate and cultured in a CO2 incubator for 24 hours. These wells were divided into a blank control group, a positive control group and a test group. […] Thereafter, the medium in each well was removed, 100 μL of PBS was added thereto, and fluorescence intensity at 535 nm was measured at an excitation wavelength of 485 nm. The amount of ROS generated in the positive control group and the test group was calculated taking the fluorescence intensity of the blank control group as 1.0 (basal). […]
# [5] = test system: HepG2 cells; test: MTT cytotoxicity test on HepG2 cells; type: cell-based, human; conditions: concentrations of 1 to 100 μM, 48 hours, FIG. 11
# Method: as §5, §2
# as §3, with “HepG2” for “B16 melanoma”, “have” for “had”, “1×10^5” for “3×10^4”, “cultured” for “cultured overnight”, “incubator for 24 hours. After culturing, the” for “incubator. The”, “removed,” for “removed from each well,”
# as §4
# [6] = Mus musculus, B16, 48 h, 48 hours, B16 melanoma cells, read-out: Melanogenesis inhibition rate (%)
SMILES,"inhibition at 0.1 µM ([1]; Mus musculus, B16, 48 h, concentration 0.1 μM, 48 hours, B16 melanoma cells, read-out: Melanogenesis inhibition rate (%)) [%]","inhibition at 5 µM ([1]; Mus musculus, B16, 48 h, concentration 5 μM, 48 hours, B16 melanoma cells, read-out: Melanogenesis inhibition rate (%)) [%]","inhibition at 10 µM [1, 6] [%]",DPPH radical scavenging activity [2],"cytotoxicity against B16 melanoma cells (MTT, cell viability) [3]",ROS generation inhibiting effect in HepG2 cells [4],"inhibition at 50 µM ([1]; Mus musculus, B16, 48 h, concentration 50 μM, 48 hours, B16 melanoma cells, read-out: Melanogenesis inhibition rate (%)) [%]","inhibition at 100 µM ([1]; Mus musculus, B16, 48 h, concentration 100 μM, 48 hours, B16 melanoma cells, read-out: Melanogenesis inhibition rate (%)) [%]","inhibition effect on melanogenesis in B16 melanoma cells (in words) ([1]; concentration of 10 to 100 μM, P<0.05)","cytotoxicity against HepG2 cells (MTT, cell viability) [5]"
"O=C1O[C@H]([C@@H](O)CO)C(O)=C1O [L-Ascorbic acid, L-ascorbic acid, reference compound]",9.2,15.6,32.8,,,,,,,
COc1cc(/C=C/COC(=O)C(C)C)cc(OC)c1O[C@@H]1O[C@H](CO)[C@@H](O)[C@H](O)[C@H]1O [Ceratonia siliqua B],,,20.2,scavenge DPPH radicals in a concentration-dependent manner,no cytotoxicity,inhibited the increase in ROS induced by hydrogen peroxide in HepG2 cells in a concentration-dependent manner,25.6,> 30,significant inhibition effect on melanogenesis,no cytotoxicity
